In PMC8308911, “Pharmacokinetic Study of Anti-osteoarthritic Compounds of a Standardized Fraction from Sphaeralcea Angustifolia” (Pharmaceuticals, 2021):
Where two headings read alike, the source gives them in different places.

Legend:
[1] = mouse
Protocol: (§1) The investigation presented here expected manipulation conditions during all of the sample storage and process periods, which included the stability data from the freeze/defrost, bench-top, autosampler, and long-term stability tests. For all stability studies, fresh QC samples were evaluated by using a freshly prepared standard curve for the measurements. The analyzed conditions were 0, 8, and 24 h at room temperature, 8 h at 4 °C, and 30 days at −70 °C. The concentrations obtained from all of the stability studies were compared with the fresh QC samples, and the percentage of concentration deviation was calculated.

[2] = Stability of the active compounds in mouse plasma under handling and storage conditions; conditions: mice plasma
Protocol: as §1

[3] = Autosampler (4 °C, 8 h), nominal 2.5 μg/mL
[4] = Autosampler (4 °C, 8 h), nominal 5 μg/mL
[5] = Autosampler (4 °C, 8 h), nominal 10 μg/mL
[6] = Long-term (−70 °C, 1 month), nominal 2.5 μg/mL
[7] = Long-term (−70 °C, 1 month), nominal 5 μg/mL
[8] = Long-term (−70 °C, 1 month), nominal 10 μg/mL
[9] = room temperature, 0 h, nominal 2.5 μg/mL
[10] = room temperature, 0 h, nominal 5 μg/mL
[11] = room temperature, 0 h, nominal 10 μg/mL
[12] = room temperature, 8 h, nominal 2.5 μg/mL
[13] = room temperature, 8 h, nominal 5 μg/mL
[14] = room temperature, 8 h, nominal 10 μg/mL
[15] = room temperature, 24 h, nominal 2.5 μg/mL
[16] = room temperature, 24 h, nominal 5 μg/mL
[17] = room temperature, 24 h, nominal 10 μg/mL

Structure (SMILES): COc1cc2ccc(=O)oc2cc1O [Scopoletin, scopoletin]
- Accuracy Bias ([1]; 0 h, 2.5 μg/mL): −0.48%
- Observed Concentration ([1]; 0 h, 2.5 μg/mL): 2.49 ± 0.12 µg/mL
- Accuracy Bias ([1]; 0 h, 5 μg/mL): 0.39%
- Observed Concentration ([1]; 0 h, 5 μg/mL): 5.02 ± 0.08 µg/mL
- Accuracy Bias ([1]; 0 h, 10 μg/mL): 0.04%
- Observed Concentration ([1]; 0 h, 10 μg/mL): 10.00 ± 0.37 µg/mL
- Accuracy Bias ([1]; 1 month, 2.5 μg/mL): −7.05%
- Observed Concentration ([1]; 1 month, 2.5 μg/mL): 2.32 ± 0.08 µg/mL
- Accuracy Bias ([1]; 1 month, 5 μg/mL): −2.27%
- Observed Concentration ([1]; 1 month, 5 μg/mL): 4.89 ± 0.17 µg/mL
- Accuracy Bias ([1]; 1 month, 10 μg/mL): −0.46%
- Observed Concentration ([1]; 1 month, 10 μg/mL): 9.95 ± 0.38 µg/mL
- Accuracy Bias ([1]; 24 h, 2.5 μg/mL): −4.63%
- Observed Concentration ([1]; 24 h, 2.5 μg/mL): 2.38 ± 0.08 µg/mL
- Accuracy Bias ([1]; 24 h, 5 μg/mL): 0.43%
- Observed Concentration ([1]; 24 h, 5 μg/mL): 5.02 ± 0.10 µg/mL
- Accuracy Bias ([1]; 24 h, 10 μg/mL): −6.61%
- Observed Concentration ([1]; 24 h, 10 μg/mL): 9.34 ± 0.27 µg/mL

Structure (SMILES): COc1cc2oc(=O)ccc2c(O)c1OC [Tomentin, tomentin]
- Accuracy Bias [2, 3]: −2.64%
- Observed Concentration [2, 3]: 2.43 ± 0.11 µg/mL
- Accuracy Bias [2, 4]: −1.65%
- Observed Concentration [2, 4]: 4.92 ± 0.14 µg/mL
- Accuracy Bias [2, 5]: −0.65%
- Observed Concentration [2, 5]: 9.93 ± 0.62 µg/mL
- Accuracy Bias [2, 6]: −7.61%
- Observed Concentration [2, 6]: 2.31 ± 0.09 µg/mL
- Accuracy Bias [2, 7]: −2.90%
- Observed Concentration [2, 7]: 4.85 ± 0.18 µg/mL
- Accuracy Bias [2, 8]: −3.74%
- Observed Concentration [2, 8]: 9.63 ± 0.65 µg/mL
- Accuracy Bias [2, 9]: −4.59%
- Observed Concentration [2, 9]: 2.39 ± 0.09 µg/mL
- Accuracy Bias [2, 10]: −1.48%
- Observed Concentration [2, 10]: 4.93 ± 0.11 µg/mL
- Accuracy Bias [2, 11]: −0.41%
- Observed Concentration [2, 11]: 9.96 ± 0.30 µg/mL
- Accuracy Bias [2, 12]: −7.60%
- Observed Concentration [2, 12]: 2.31 ± 0.08 µg/mL
- Accuracy Bias [2, 13]: −0.86%
- Observed Concentration [2, 13]: 4.96 ± 0.14 µg/mL
- Accuracy Bias [2, 14]: −1.64%
- Observed Concentration [2, 14]: 9.84 ± 0.40 µg/mL
- Accuracy Bias [2, 15]: −5.93%
- Observed Concentration [2, 15]: 2.35 ± 0.09 µg/mL
- Accuracy Bias [2, 16]: −1.73%
- Observed Concentration [2, 16]: 4.91 ± 0.17 µg/mL
- Accuracy Bias [2, 17]: −4.52%
- Observed Concentration [2, 17]: 9.55 ± 0.19 µg/mL
